The text below walks through data of patent US9751854B2 (Millennium Pharmaceuticals, Inc., priority 2014, dated 2017).

The target of the first experiment is human VPS34 (Homo sapiens (Human), UniProt Q8NEB9). Description: Human VPS34 enzyme assay (Adapta TR-FRET ADP detection).
Sequence of human VPS34 (Q8NEB9 whole entry): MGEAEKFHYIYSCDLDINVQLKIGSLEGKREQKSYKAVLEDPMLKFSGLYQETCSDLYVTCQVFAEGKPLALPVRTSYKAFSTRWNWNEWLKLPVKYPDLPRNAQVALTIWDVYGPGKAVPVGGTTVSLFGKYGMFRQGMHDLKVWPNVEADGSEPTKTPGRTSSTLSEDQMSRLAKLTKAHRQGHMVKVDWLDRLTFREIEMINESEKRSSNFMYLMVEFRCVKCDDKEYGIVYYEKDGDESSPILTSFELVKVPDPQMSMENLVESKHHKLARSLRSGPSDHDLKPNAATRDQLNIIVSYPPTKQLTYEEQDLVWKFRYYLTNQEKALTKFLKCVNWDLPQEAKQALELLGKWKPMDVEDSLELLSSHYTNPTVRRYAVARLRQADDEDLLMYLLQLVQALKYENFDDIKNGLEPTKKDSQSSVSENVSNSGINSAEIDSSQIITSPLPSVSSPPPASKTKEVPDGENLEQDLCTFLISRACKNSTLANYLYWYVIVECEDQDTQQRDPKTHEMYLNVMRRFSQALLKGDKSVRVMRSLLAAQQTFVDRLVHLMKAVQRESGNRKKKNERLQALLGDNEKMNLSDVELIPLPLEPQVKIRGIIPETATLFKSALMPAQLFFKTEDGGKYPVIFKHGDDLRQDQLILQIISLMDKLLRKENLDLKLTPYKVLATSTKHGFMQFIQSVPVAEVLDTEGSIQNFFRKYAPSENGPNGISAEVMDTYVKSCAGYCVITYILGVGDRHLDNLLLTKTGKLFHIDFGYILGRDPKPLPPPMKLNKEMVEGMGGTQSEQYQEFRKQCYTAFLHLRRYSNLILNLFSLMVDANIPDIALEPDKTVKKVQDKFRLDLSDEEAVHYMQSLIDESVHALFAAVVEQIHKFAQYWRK
Conditions: not given
Details: Percent Inhibition: dose or concentration left out as unconfirmed. It is filed as biochemical. On the technique in general: TR-FRET usually uses a lanthanide donor and a delayed reading to cut background.
For `CC(=O)Nc1cc(-c2cnc(N)c(S(=O)(=O)NCC(C)C)c2)ccn1` [Compound I-73, N-[6-amino-5-(isobutylsulfamoyl)-3,4′-bipyridin-2′-yl]acetamide], the “Percent Inhibition” value is reported as greater than 99%.

Still in this experiment, the particulars now being: IC50 range class.
Consider `CC(=O)Nc1cc(-c2cnc(C)c(N3CCCS3(=O)=O)c2)ccn1` [Compound I-88, N-[5-(1,1-dioxidoisothiazolidin-2-yl)-6-methyl-3,4′-bipyridin-2′-yl]acetamide], for which the IC50 was in the range of 10 to 50 nM.
Still for that read-out and setting: then `CC(=O)Nc1cc(-c2cnc(F)c(NS(=O)(=O)c3ccc(F)cc3F)c2)ccn1` [Compound I-164, N-(5-{[(2,4-difluorophenyl)sulfonyl]amino}-6-fluoro-3,4′-bipyridin-2′-yl)acetamide], with less than 10 nM; and `CC(=O)Nc1cc(-c2cnc(C)c(NS(=O)(=O)C3CC3)c2)ccn1` [Compound I-114, N-{5-[(cyclopropylsulfonyl)amino]-6-methyl-3,4′-bipyridin-2′-yl]acetamide], with 10 to 50 nM; and `CC(=O)Nc1cc(-c2cnc(C)c(NS(=O)(=O)c3cn(C)nc3C(F)(F)F)c2)ccn1` [Compound I-18, N-[6-methyl-5-({[1-methyl-3-(trifluoromethyl)-1H-pyrazol-4-yl]sulfonyl}amino)-3,4′-bipyridin-2′-yl]acetamide], with less than 10 nM.
The same measure, in the same setting: the value for `CC(=O)Nc1cc(-c2cnc(C#N)c(NS(=O)(=O)c3ccc(F)cc3F)c2)ccn1` [Compound I-411, N-(6-cyano-5-{[(2,4-difluorophenyl)sulfonyl]amino}-3,4′-bipyridin-2′-yl)acetamide] was less than 10 nM; that for `COc1ncc(-c2ccnc(NC(C)=O)c2)cc1S(=O)(=O)Nc1ccc(Cl)cc1Cl` [Compound I-344] was 10 to 50 nM.
Consider `CCN(C)S(=O)(=O)Nc1cc(-c2ccnc(NC(C)=O)c2)cnc1C` [Compound I-273, N-(5-{[ethyl(methyl)sulfamoyl]amino}-6-methyl-3,4′-bipyridin-2′-yl)acetamide], for which the IC50 was less than 10 nM.
On the same count and under the same terms, then `CC(=O)Nc1cc(-c2cncc(S(=O)(=O)NC3C4CC5CC(C4)CC3C5)c2)ccn1` (stereo not shown) [Compound I-318, N-[5-(adamantan-2-ylsulfamoyl)-3,4′-bipyridin-2′-yl]acetamide], with 10 to 50 nM; and `CC(=O)Nc1cc(-c2cnc(C)c(NS(=O)(=O)c3cccc(C(C)(C)C)c3)c2)ccn1` [Compound I-70], with less than 10 nM.
Turning to `CC(=O)Nc1cc(-c2cnc(N)c(S(=O)(=O)NCC(C)C)c2)ccn1` [Compound I-73, N-[6-amino-5-(isobutylsulfamoyl)-3,4′-bipyridin-2′-yl]acetamide], the half-maximal inhibitory concentration (IC50) is less than 10 nM.
`COc1cc(C)ccc1S(=O)(=O)Nc1cc(-c2ccnc(NC(C)=O)c2)cnc1C` [Compound I-142, N-(5-{[(2-methoxy-4-methylphenyl)sulfonyl]amino}-6-methyl-3,4′-bipyridin-2′-yl)acetamide] registered a 50% inhibitory concentration (IC50) of less than 10 nM.
`COc1ncc(-c2ccnc(NC(C)=O)c2)cc1C(=O)N(C)C` [Compound I-127, 2′-acetamido-6-methoxy-N,N-dimethyl-3,4′-bipyridine-5-carboxamide] showed an IC50 of 50 to 100 nM.
Same read-out and setting: then `CNc1ncc(-c2ccnc(NC(C)=O)c2)cc1N(C)S(C)(=O)=O` [Compound I-147, N-{6-(methylamino)-5-[methyl(methylsulfonyl)amino]-3,4′-bipyridin-2′-yl}acetamide], with less than 10 nM; and `CCOC(=O)Nc1cc(-c2cnc(C)c(NS(=O)(=O)c3ccc(F)cc3F)c2)ccn1` [Compound I-389, ethyl (5-{[(2,4-difluorophenyl)sulfonyl]amino}-6-methyl-3,4′-bipyridin-2′-yl)carbamate], with less than 10 nM; and `Cc1nccc(Nc2cc(-c3cnc(C)c(NC(=O)Nc4ccccc4)c3)ccn2)n1` [Compound I-439, 1-{6-methyl-2′-[(2-methylpyrimidin-4-yl)amino]-3,4′-bipyridin-5-yl}-3-phenylurea], with greater than 100 nM.
As for `CNc1ncc(-c2ccnc(Nc3ccncn3)c2)cc1C(=O)N(C)C12CC(C1)C2` [Compound I-222, N-(bicyclo[1.1.1]pent-1-yl)-N-methyl-6-(methylamino)-2′-(pyrimidin-4-ylamino)-3,4′-bipyridine-5-carboxamide], the IC50 was 10 to 50 nM.
The same measure, in the same setting: the value for `CC(=O)Nc1cc(-c2cnc(N)c(S(=O)(=O)Cc3ccc(Cl)cc3)c2)ccn1` [Compound I-99, N-[6-amino-5-[(4-chlorobenzyl)sulfonyl]-3,4′-bipyridin-2′-yl]acetamide] was 10 to 50 nM; that for `Cc1ncc(-c2ccnc(Nc3ccnc(C(F)(F)F)n3)c2)cc1C(=O)N1CCC1` [Compound I-292, azetidin-1-yl(6-methyl-2′-[(2-(trifluoromethyl)pyrimidin-4-yl]amino}-3,4′-bipyridin-5-yl)methanone] was 10 to 50 nM; that for `Cc1nccc(Nc2cc(-c3cnc(C)c(C(=O)N4CCCCC4)c3)ccn2)n1` [Compound I-262, [6-methyl-2′-[(2-methylpyrimidin-4-yl)amino]-3,4′-bipyridin-5-yl](piperidin-1-yl)methanone] was 10 to 50 nM.
The same measure, in the same setting: then `Cc1ncc(-c2ccnc(NC(=O)OCc3ccn(C)n3)c2)cc1NS(=O)(=O)c1ccc(F)cc1F` [Compound I-326, (1-methyl-1H-pyrazol-3-yl)methyl (5-{[(2,4-difluorophenyl)sulfonyl]amino}-6-methyl-3,4′-bipyridin-2′-yl)carbamate], with less than 10 nM; and `COc1ncc(-c2ccnc(NC(C)=O)c2)cc1NS(=O)(=O)c1ccc(F)cc1F` [Compound I-104, N-(5-{[(2,4-difluorophenyl)sulfonyl]amino}-6-methoxy-3,4′-bipyridin-2′-yl)acetamide], with less than 10 nM; and `O=C(Nc1cc(-c2cnc3[nH]ncc3c2)ccn1)C1CC1` [Compound I-117, N-[4-(1H-pyrazolo[3,4-b]pyridin-5-yl)pyridin-2-yl]cyclopropanecarboxamide], with 10 to 50 nM.
For `CC(=O)Nc1cc(-c2cnc(C)c(NS(=O)(=O)CC(F)F)c2)ccn1` [Compound I-412, N-(5-{[(2,2-difluoroethyl)sulfonyl]amino}-6-methyl-3,4′-bipyridin-2′-yl)acetamide], the IC50 was in the range of 10 to 50 nM.
The same measure, in the same setting: then `CC(=O)Nc1cc(-c2cnc(N)c(C(=O)NC(=N)N)c2)ccn1` [Compound I-409, 2′-acetamido-6-amino-N-carbamimidoyl-3,4′-bipyridine-5-carboxamide], with greater than 100 nM; and `CCOC(=O)Nc1cc(-c2cnc(C)c(NS(=O)(=O)N(C)C)c2)ccn1` [Compound I-364, ethyl {5-[(dimethylsulfamoyl)amino]-6-methyl-3,4′-bipyridin-2′-yl}carbamate], with 10 to 50 nM; and `CC(=O)Nc1cc(-c2cnc3[nH]ncc3c2)ccn1` [Compound I-189, N-[4-(1H-pyrazolo[3,4-b]pyridin-5-yl)pyridin-2-yl]acetamide], with 50 to 100 nM.
The same measure, in the same setting: the value for `CC(=O)Nc1cc(-c2cnc(N(C)C)c(C(=O)N(C)C)c2)ccn1` [Compound I-162, 2′-acetamido-6-(dimethylamino)-N,N-dimethyl-3,4′-bipyridine-5-carboxamide] was 10 to 50 nM.
On the same count and under the same terms, then `Cc1nccc(Nc2cc(-c3cncc(C(C)Oc4ccccc4Cl)c3)ccn2)n1` (stereo not shown) [Compound I-336, 5-[1-(2-chlorophenoxy)ethyl]-N-(2-methylpyrimidin-4-yl)-3,4′-bipyridin-2′-amine], with 10 to 50 nM; and `CC(=O)Nc1cc(-c2cnc(C)c(NS(=O)(=O)c3cccnc3)c2)ccn1` [Compound I-45, N-{6-methyl-5-[(pyridin-3-ylsulfonyl)amino]-3,4′-bipyridin-2′-yl}acetamide], with less than 10 nM.
As for `CC(=O)Nc1cc(-c2cnc(N)c(C(=O)N3CCOCC3)c2)ccn1` [Compound I-152, N-[6-amino-5-(morpholin-4-ylcarbonyl)-3,4′-bipyridin-2′-yl]acetamide], the IC50 lay in the range of 10 to 50 nM.
Same read-out and setting: then `Cc1nccc(Nc2cc(-c3cnc(Cl)c(NS(=O)(=O)c4ccc(F)cc4F)c3C)c(F)cn2)n1` [Compound I-294, N-{6-chloro-5′-fluoro-4-methyl-2′-[(2-methylpyrimidin-4-yl)amino]-3,4′-bipyridin-5-yl}-2,4-difluorobenzenesulfonamide], with less than 10 nM; and `COC(=O)Nc1cc(-c2cnc3ccn(CC4CC4)c3c2)ccn1` [Compound I-42, Methyl {4-[1-(cyclopropylmethyl)-1H-pyrrolo[3,2-b]pyridin-6-yl]pyridin-2-yl}carbamate], with 10 to 50 nM; and `Cc1nc(Nc2cc(-c3cnc(C)c(NS(=O)(=O)c4ccc(F)cc4F)c3)ccn2)nc(C2CC2)n1` [Compound I-382, N-{2′-[(4-cyclopropyl-6-methyl-1,3,5-triazin-2-yl)amino]-6-methyl-3,4′-bipyridin-5-yl}-2,4-difluorobenzenesulfonamide], with less than 10 nM.
On the same count and under the same terms, the value for `CC(=O)Nc1cc(-c2cnc(N)c(S(=O)(=O)N(C)Cc3ccccc3)c2)ccn1` [Compound I-76, N-{6-amino-5-[benzyl(methyl)sulfamoyl]-3,4′-bipyridin-2′-yl}acetamide] was less than 10 nM; that for `CC(=O)Nc1cc(-c2cncc(S(=O)(=O)N3CCCC3)c2)ccn1` [Compound I-47, N-[5-(pyrrolidin-1-ylsulfonyl)-3,4′-bipyridin-2′-yl]acetamide] was 10 to 50 nM; that for `COc1ccc(S(=O)(=O)Nc2cc(-c3ccnc(NC(C)=O)c3)cnc2C)cc1` [Compound I-165, N-(5-{[(4-methoxyphenyl)sulfonyl]amino}-6-methyl-3,4′-bipyridin-2′-yl)acetamide] was less than 10 nM.
Compound `CN(C(=O)c1cc(-c2ccnc(Nc3ccncn3)c2)cnc1N)C12CC(C1)C2` [Compound I-303, 6-amino-N-(bicyclo[1.1.1]pent-1-yl)-N-methyl-2′-(pyrimidin-4-ylamino)-3,4′-bipyridine-5-carboxamide] came in with an IC50 of 10 to 50 nM.
In turn, `CN(C)S(=O)(=O)c1cc(-c2ccnc(Nc3ncco3)c2)cnc1N` [Compound I-166, 6-amino-N,N-dimethyl-2′-(1,3-oxazol-2-ylamino)-3,4′-bipyridine-5-sulfonamide] came in with an IC50 of less than 10 nM.
Same read-out and setting: then `COc1ccccc1S(=O)(=O)Nc1cc(-c2ccnc(NC(C)=O)c2)cnc1C` [Compound I-74, N-(5-{[(2-methoxyphenyl)sulfonyl]amino}-6-methyl-3,4′-bipyridin-2′-yl)acetamide], with less than 10 nM.

Usually IC50 stands for the midpoint of a concentration-inhibition curve.
